The source made the active and inactive calls. No cut-off for these calls is given here.

Data set [1] concerns the target Cytochrome P450 2D6 (Homo sapiens, UniProt P10635). As to the kind of experiment: Inhibition of CYP2D6 in human liver microsomes using dextromethorphan as substrate preincubated for 5 mins followed by NADPH addition and measured after 10 mins by LC-MS/MS analysis. Format: ADME, Microsome. Background: Liver microsomes are vesicles of endoplasmic reticulum, rich in cytochrome P450 enzymes.

A short description of data set [2]: Half-life in Sprague-Dawley rat at 5 mg/kg, po or 5 mg/kg, iv measured after 24 hrs by LC-MS/MS analysis. The data set is classed as ADME, organism-based. The note with it: in vivo.
The target in data set [3] is Epidermal growth factor receptor (Homo sapiens, UniProt P00533). As to the kind of experiment: Inhibition of EGFR (unknown origin) in presence of ATP at Km concentration.
Epidermal growth factor receptor, sequence (P00533 whole entry): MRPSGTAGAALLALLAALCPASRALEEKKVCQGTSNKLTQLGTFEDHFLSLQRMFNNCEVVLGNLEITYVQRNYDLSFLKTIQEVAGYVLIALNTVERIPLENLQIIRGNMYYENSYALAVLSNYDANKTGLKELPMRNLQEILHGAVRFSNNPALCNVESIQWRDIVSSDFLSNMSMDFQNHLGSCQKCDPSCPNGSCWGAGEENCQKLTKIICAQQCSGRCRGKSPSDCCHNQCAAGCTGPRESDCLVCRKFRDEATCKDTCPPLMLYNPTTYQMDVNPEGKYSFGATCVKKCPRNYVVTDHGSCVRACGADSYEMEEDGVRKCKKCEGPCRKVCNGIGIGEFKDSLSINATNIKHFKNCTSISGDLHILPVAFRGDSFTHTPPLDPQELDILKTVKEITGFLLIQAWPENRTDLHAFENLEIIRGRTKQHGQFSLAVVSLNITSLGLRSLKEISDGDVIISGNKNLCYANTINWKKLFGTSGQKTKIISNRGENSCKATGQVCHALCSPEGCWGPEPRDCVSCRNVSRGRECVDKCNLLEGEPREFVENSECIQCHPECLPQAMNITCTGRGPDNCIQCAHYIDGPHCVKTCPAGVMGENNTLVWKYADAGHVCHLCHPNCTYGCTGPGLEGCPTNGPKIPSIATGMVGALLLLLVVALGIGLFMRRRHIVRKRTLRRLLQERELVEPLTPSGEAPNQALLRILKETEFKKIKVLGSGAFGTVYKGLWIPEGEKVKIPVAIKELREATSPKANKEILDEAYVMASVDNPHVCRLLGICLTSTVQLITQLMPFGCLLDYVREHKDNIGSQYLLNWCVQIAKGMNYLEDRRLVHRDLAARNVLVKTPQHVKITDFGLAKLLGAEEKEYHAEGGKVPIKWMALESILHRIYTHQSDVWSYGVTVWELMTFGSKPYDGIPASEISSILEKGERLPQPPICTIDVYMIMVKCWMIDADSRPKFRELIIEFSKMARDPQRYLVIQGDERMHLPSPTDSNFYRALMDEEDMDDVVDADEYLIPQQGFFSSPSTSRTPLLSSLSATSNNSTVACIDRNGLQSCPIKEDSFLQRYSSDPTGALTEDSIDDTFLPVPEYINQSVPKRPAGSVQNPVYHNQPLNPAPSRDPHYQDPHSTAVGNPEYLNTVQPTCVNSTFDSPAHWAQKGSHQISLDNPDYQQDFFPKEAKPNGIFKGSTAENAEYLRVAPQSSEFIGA
The test system of data set [4] is HeLa. As to the kind of experiment: Anticancer activity against human HeLa cells assessed as inhibition of cell proliferation incubated for 72 hrs by MTT assay. The data set is classed as functional, cell-based. (Tetrazolium assays rely on reduction of a dye to a coloured formazan, in cell work by metabolically active cells.)
Data set [5] concerns HGC-27. As to the kind of experiment: Induction of autophagy in human HGC-27 cells assessed as increase in LC3B protein expression incubated for 48 hrs by Western blot analysis. Particulars: dose 5-15 µM. The data set is classed as functional, cell-based. For orientation: Immunoblotting shows a protein as a band on a membrane.
Data set [6] relates to NCI-H460. As to the kind of experiment: cells. Particulars: Homo sapiens, NCI-H460, 72 h.
Description: Anticancer activity against human NCI-H460 cells assessed as inhibition of cell proliferation incubated for 72 hrs by MTT assay
Data set [7] concerns C6661. As to the kind of experiment: Anticancer activity against human C666-1 cells assessed as inhibition of cell proliferation incubated for 72 hrs by MTT assay. The data set is classed as functional, cell-based. Particulars: C6661, 72 h.
In data set [8] the test system is HGC-27. As to the kind of experiment: Induction of apoptosis in human HGC-27 cells assessed as increase in cleaved caspase 3 level incubated for 48 hrs by Western blot analysis. Format: functional, cell-based. Particulars: dose 5-15 µM.
Data set [9] has as its system HGC-27. As to the kind of experiment: Downregulation of BMX protein expression in human HGC-27 cells incubated for 48 hrs by Western blot analysis. Format: functional, cell-based. The note with it: dose 5-15 µM.
The test system of data set [10] is HGC-27. The data set can be described thus: Antitumor activity against human HGC-27 cells xenografted in female BALB/c nude mouse model assessed as reduction in tumor volume at 30 mg/kg/day, ip administered for 21 days. The data set is classed as functional, organism-based. Particulars: time 21.0 day.

Cytochrome P450 2D6, sequence (P10635 whole entry): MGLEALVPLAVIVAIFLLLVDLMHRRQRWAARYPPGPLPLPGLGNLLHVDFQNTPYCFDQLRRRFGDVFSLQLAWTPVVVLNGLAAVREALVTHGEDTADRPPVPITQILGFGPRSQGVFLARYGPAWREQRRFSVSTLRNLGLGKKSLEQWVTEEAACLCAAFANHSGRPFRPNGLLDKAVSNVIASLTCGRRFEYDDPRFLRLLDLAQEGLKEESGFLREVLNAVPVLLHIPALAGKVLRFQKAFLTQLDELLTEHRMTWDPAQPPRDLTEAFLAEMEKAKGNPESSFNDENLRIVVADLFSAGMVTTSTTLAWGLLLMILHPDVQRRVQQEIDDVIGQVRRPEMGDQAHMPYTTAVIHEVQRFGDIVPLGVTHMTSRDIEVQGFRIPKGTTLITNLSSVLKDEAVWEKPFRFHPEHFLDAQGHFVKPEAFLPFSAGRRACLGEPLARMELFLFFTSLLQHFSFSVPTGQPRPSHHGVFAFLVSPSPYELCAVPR

In the case of `C=CS(=O)(=O)N1CCC[C@@H](Nc2nc(N)nc(Nc3cccc(Oc4ccccc4)c3)n2)C1`, the IC50 is 82 µM in data set [1]; 0.468 µM in [3]; 6.5 µM in data set [4]; 16.7 µM in [6]; 14.9 µM in [7]. In data set [2], this compound had a half-life of 18.3 h. The Activity entry in data set [5], in data set [8] and in [9] was “Dose-dependent-effect” each time. Further, in [10], the outcome was Active.

The IC50 is the concentration that inhibits the measured activity by half. In general, half-life refers to how long it takes for the measured level to halve. High values mean slow decline, low ones rapid decline.

(Values after ChEMBL document CHEMBL6153141, “Design, Synthesis, and Mechanism Study of Novel BMX Inhibitors Based on the Core of 1,3,5-Triazin-2-Amine for the Treatment of Gastric Carcinoma” (J Med Chem, 2025).)
